Key:
KYSE-150 cell line = experiment: cells; conditions: Homo sapiens, KYSE-150, 72 h
Description: Antiproliferative activity against human KYSE-150 cells assessed as inhibition of cell growth incubated for 72 hrs by MTT assay

HepG2 = experiment: cells; conditions: Homo sapiens, HepG2, 72 h
MDA-MB-231 = experiment: cells; conditions: Homo sapiens, MDA-MB-231, 72 h
MDA-MB-435 = experiment: cells; conditions: Homo sapiens, MDA-MB-435, 72 h
Description: Antiproliferative activity against human MDA-MB-435 cells assessed as inhibition of cell growth incubated for 72 hrs by MTT assay

in vitro = conditions: human
Description: Cytotoxicity against HUVEC cells assessed as inhibition of cell growth incubated for 72 hrs by MTT assay

[1] = Metabolic stability in rat liver microsomes assessed as parent compound remaining at 1 uM measured after 5 mins by LC-MS/MS analysis; assay type: ADME, Microsome; conditions: read-out: Stability
[2] = Metabolic stability in human liver microsomes assessed as intrinsic clearance at 1 uM incubated for 45 mins by LC-MS/MS analysis; assay type: ADME, Microsome; conditions: read-out: CLH
[3] = Metabolic stability in human liver microsomes assessed as half-life at 1 uM incubated for 45 mins by LC-MS/MS analysis; assay type: ADME, Microsome
[4] = Metabolic stability in mouse liver microsomes assessed as parent compound remaining at 1 uM measured after 30 mins by LC-MS/MS analysis; assay type: ADME, Microsome; conditions: read-out: Stability
[5] = Metabolic stability in rat liver microsomes assessed as intrinsic clearance at 1 uM incubated for 45 mins by LC-MS/MS analysis; assay type: ADME, Microsome; conditions: read-out: CLH
[6] = Metabolic stability in mouse liver microsomes assessed as parent compound remaining at 1 uM measured after 5 mins by LC-MS/MS analysis; assay type: ADME, Microsome; conditions: read-out: Stability
[7] = Metabolic stability in human liver microsomes assessed as parent compound remaining at 1 uM measured after 30 mins by LC-MS/MS analysis; assay type: ADME, Microsome; conditions: read-out: Stability
[8] = Metabolic stability in rat liver microsomes assessed as half-life at 1 uM incubated for 45 mins by LC-MS/MS analysis; assay type: ADME, Microsome
[9] = Metabolic stability in human liver microsomes assessed as parent compound remaining at 1 uM measured after 15 mins by LC-MS/MS analysis; assay type: ADME, Microsome; conditions: read-out: Stability
[10] = Metabolic stability in mouse liver microsomes assessed as half-life at 1 uM incubated for 45 mins by LC-MS/MS analysis; assay type: ADME, Microsome
[11] = Metabolic stability in mouse liver microsomes assessed as parent compound remaining at 1 uM measured after 15 mins by LC-MS/MS analysis; assay type: ADME, Microsome; conditions: read-out: Stability
[12] = Metabolic stability in human liver microsomes assessed as parent compound remaining at 1 uM measured after 45 mins by LC-MS/MS analysis; assay type: ADME, Microsome; conditions: read-out: Stability
[13] = Metabolic stability in rat liver microsomes assessed as parent compound remaining at 1 uM measured after 30 mins by LC-MS/MS analysis; assay type: ADME, Microsome; conditions: read-out: Stability
[14] = Metabolic stability in mouse liver microsomes assessed as intrinsic clearance at 1 uM incubated for 45 mins by LC-MS/MS analysis; assay type: ADME, Microsome; conditions: read-out: CLH
[15] = Metabolic stability in rat liver microsomes assessed as parent compound remaining at 1 uM measured after 15 mins by LC-MS/MS analysis; assay type: ADME, Microsome; conditions: read-out: Stability
[16] = Metabolic stability in rat liver microsomes assessed as parent compound remaining at 1 uM measured after 45 mins by LC-MS/MS analysis; assay type: ADME, Microsome; conditions: read-out: Stability
[17] = Metabolic stability in mouse liver microsomes assessed as parent compound remaining at 1 uM measured after 45 mins by LC-MS/MS analysis; assay type: ADME, Microsome; conditions: read-out: Stability
[18] = Metabolic stability in human liver microsomes assessed as parent compound remaining at 1 uM measured after 5 mins by LC-MS/MS analysis; assay type: ADME, Microsome; conditions: read-out: Stability

IC50 (KYSE-150 cell line)	IC50 (HepG2)	IC50 (MDA-MB-231)	IC50 (MDA-MB-435)	IC50 at 72 h (in vitro; HUVEC cells)	SMILES	further results
16.8 µM	39.4 µM	24.4 µM	18.9 µM	75.4 µM	C=CC(=O)Nc1ccc(C(=O)n2ccc3cc(Br)cnc32)cc1	
9.84 µM	16.4 µM	29.7 µM	6.3 µM	69.7 µM	C=CC(=O)Nc1cc(Cn2ncc3ccc(Br)cc32)ccc1F	
26 µM	48.4 µM	66.3 µM	29.4 µM	80.9 µM	C=C(C)C(=O)Nc1ccc(Cn2cnc3c(Cl)ncnc32)cc1	
13.8 µM	24.7 µM	25.8 µM	24.3 µM	64.5 µM	C=CC(=O)Nc1cc(Cn2cnc3ccc(Cl)nc32)ccc1F	
13.3 µM	19.1 µM	7.36 µM	30.1 µM	77.1 µM	CC(C)=CC(=O)Nc1ccc(Cn2cnc3c(Cl)ncnc32)cc1	
5.21 µM	29.1 µM	9.15 µM	24.1 µM	54.6 µM	C=CC(=O)Nc1cc(Cn2ncc3ccncc32)ccc1F	
10.1 µM	40.1 µM	29.4 µM	10 µM	56.1 µM	C=CC(=O)Nc1ccc(C(=O)n2ccc3c(Cl)ncnc32)cc1	
14.3 µM	8.36 µM	5.64 µM	13.2 µM	75.2 µM	C=CC(=O)Nc1ccc(Cn2cnc3c(-c4ccc(F)c(F)c4)ncnc32)cc1	
10.8 µM	45 µM	34.8 µM	18.5 µM	80.4 µM	C=CC(=O)Nc1ccc(C(=O)n2ccc3cc(Cl)cnc32)cc1	
7.26 µM	11.1 µM	7.21 µM	24.6 µM	76.5 µM	C=CC(=O)Nc1cc(Cn2ccc3ccc(Br)cc32)ccc1F	
13.5 µM	12.2 µM	6.53 µM	20.1 µM	79.2 µM	C=CC(=O)Nc1ccc(Cn2cnc3c(-c4cc5ccccc5o4)ncnc32)cc1	
7.68 µM	26.8 µM	29.3 µM	27.1 µM	60.3 µM	C=CC(=O)Nc1cc(Cn2ccc3c(Cl)ncnc32)ccc1F	
10.6 µM	27 µM	9.64 µM	31.6 µM	81.2 µM	O=C(Nc1ccc(Cn2cnc3c(Cl)ncnc32)cc1)C1CC1	
16.2 µM	19.9 µM	29.2 µM	27.9 µM	50.9 µM	C=CC(=O)Nc1cc(Cn2nnc3c(C(=O)NCC(F)F)cccc32)ccc1F	
13.6 µM	30.5 µM	20.3 µM	32.5 µM	64.2 µM	C=CC(=O)Nc1cc(Cn2nnc3c(C(=O)OC)cccc32)ccc1F	
12.3 µM	27.3 µM	21.2 µM	26.4 µM	64 µM	O=C(CCl)Nc1ccc(Cn2cnc3c(Cl)ncnc32)cc1	

IC50 (KYSE-150 cell line)	IC50 (HepG2)	IC50 (MDA-MB-231)	IC50 (MDA-MB-435)	IC50 at 72 h (in vitro; HUVEC cells)	SMILES	further results
13.3 µM	28.5 µM	7.93 µM	30.1 µM	80.1 µM	CCC(=O)Nc1ccc(Cn2cnc3c(Cl)ncnc32)cc1	
2.95 µM	2.81 µM	2.64 µM	5.93 µM	50.5 µM	C=CC(=O)Nc1ccc(Cn2cnc3c(Cl)ncnc32)cc1	
23 µM	23.7 µM	27.2 µM	27.2 µM	54.4 µM	C=CC(=O)Nc1cc(Cn2ccc3c(Cl)ccnc32)ccc1F	
15.9 µM	25.1 µM	40.3 µM	26.2 µM	79.3 µM	C=CC(=O)Nc1cc(Cn2ccc3ncnc(Cl)c32)ccc1F	
12.2 µM	11.1 µM	6.18 µM	15.7 µM	77.2 µM	C=CC(=O)Nc1ccc(Cn2cnc3c(-c4cccs4)ncnc32)cc1	
23.8 µM	24.2 µM	23.8 µM	20.8 µM	57.1 µM	C=CC(=O)Nc1cc(Cn2cnc3cnc(Cl)nc32)ccc1F	
8.23 µM	28.1 µM	37.4 µM	27.4 µM	75.5 µM	C=CC(=O)Nc1cc(Cn2ccc3cc(Br)cnc32)ccc1F	
3.78 µM	15.7 µM	10.1 µM	5.67 µM	71.4 µM	C=CC(=O)Nc1cc(Cn2cnc3c(Cl)ncnc32)ccc1F	
6.86 µM	29.6 µM	10 µM	27 µM	46.2 µM	C=CC(=O)Nc1cc(Cn2nnc3c(C(=O)NCC4CC(F)(F)C4)cccc32)ccc1F	
9.46 µM	17.8 µM	9.87 µM	32.2 µM	81.8 µM	CC(Cl)C(=O)Nc1ccc(Cn2cnc3c(Cl)ncnc32)cc1 (stereo unspecified)	
6.86 µM	51.1 µM	40 µM	3.3 µM	81 µM	C=CC(=O)Nc1ccc(C(=O)n2ncc3ccc(Br)cc32)cc1	
9.83 µM	42.6 µM	26.7 µM	33.8 µM	82.2 µM	C=CC(=O)Nc1ccc(C(=O)n2ncc3cccnc32)cc1	
8.26 µM	9.26 µM	13.9 µM	11.1 µM	79.1 µM	C=CC(=O)Nc1ccc(Cn2cnc3c(-c4cc5ccccc5s4)ncnc32)cc1	
11.2 µM	9.34 µM	7.22 µM	12.8 µM	81.3 µM	C=CC(=O)Nc1ccc(Cn2cnc3c(-c4ccccc4)ncnc32)cc1	
					O=C(c1ccc(F)cc1)C1CCN(CCn2c(=O)[nH]c3ccccc3c2=O)CC1 [KETANSERIN]	remaining at 5 min, 1 µM [1]: 76.3%; CLint scaled at 1 µM [2]: 60.8 mL/min/kg; half-life at 1 µM [3]: 28.6 min; remaining at 0.5 h, 1 µM [4]: 18.3%; CLint scaled at 1 µM [5]: 188 mL/min/kg; remaining at 5 min, 1 µM [6]: 70.3%; remaining at 0.5 h, 1 µM [7]: 55.1%; half-life at 1 µM [8]: 13.2 min; remaining at 0.25 h, 1 µM [9]: 68.5%; half-life at 1 µM [10]: 9.35 min; remaining at 0.25 h, 1 µM [11]: 38.3%; remaining at 0.75 h, 1 µM [12]: 45.9%; remaining at 0.5 h, 1 µM [13]: 24.5%; CLint scaled at 1 µM [14]: 584 mL/min/kg; remaining at 0.25 h, 1 µM [15]: 48.5%; remaining at 0.75 h, 1 µM [16]: 14.1%; remaining at 0.75 h, 1 µM [17]: 8.57%; remaining at 5 min, 1 µM [18]: 84.7%
18.9 µM	27.6 µM	7.17 µM	29.4 µM	79.6 µM	CC(C)C(=O)Nc1ccc(Cn2cnc3c(Cl)ncnc32)cc1	

SMILES	IC50 (KYSE-150 cell line)	IC50 (HepG2)	IC50 (MDA-MB-231)	IC50 (MDA-MB-435)	IC50 at 72 h (in vitro; HUVEC cells)	further results
C=CC(=O)N1CC[C@@H](n2nc(C#Cc3cc(OC)cc(OC)c3)c3c(N)ncnc32)C1	17.6 µM			16.3 µM		IC50 at 72 h (in vitro; huvec): 63.6 µM

Reference: ChEMBL document CHEMBL5500360, “Discovery of N-(4-((6-(3,5- Dimethoxyphenyl)-9H-purine derivatives as irreversible covalent FGFR inhibitors” (Eur J Med Chem, 2024)
